Source: US9943502B2, “Lung cancer adjuvant therapy” (Texas Tech University System, priority 2014, dated 2018)
“Also recorded” adds a separate entry of the source.

Columns and labels:
BEAS-2B cells = test: Soft agar colony assay of NNK-transformed BEAS-2B cells; type: cell-based, human; details: NNK 15 μM for 24 h, then 9 passages (BEAS-2BNNK), P<0.05
Method: (§1) Human normal lung epithelial cells BEAS-2B with NNK exposure/transformation or CRM1 stable overexpression. Human normal bronchial epithelial cell line BEAS-2B was obtained from American Type Culture Collection (ATCC). (1) For short-term NNK exposure, BEAS-2B cells were treated with 0, 10, 75, or 150 μM NNK for 24 and 72 h in triplicate as described in our previous study^29; (2) BEAS-2BNNK, an in vitro transformed cell model derived from BEAS-2B, was generated by exposure to NNK (15 μM) for 24 h and then continuously sub-cultured for 9 passages. […] Similarly, BEAS-2B was transfected with vector control for comparison. BEAS-2B, BEAS-2BNNK, and BEAS-2BCRM1+ cells were cultured in LHC-9 medium (Invitrogen) containing 100 U penicillin/mL and 100 μg/mL streptomycin.
Soft agar colony assay (Anchorage independent growth assay). Cells were suspended at 5×10^4 cells/mL for BEAS-2B, BEAS-2BNNK, and BEAS-2BCRM1+ or 2×10^4 cells/mL for A549 and A549CRM1− cells in growth medium containing 0.35% agar. Cell suspension was added to a 6-well tissue culture plate pre-coated with 0.7% solid agar. After 9-11 days of incubation (9 days for A549 and 11 days for BEAS-2B), the number of colonies/microscope area (6 randomly selected areas/well) was counted and their sizes were analyzed using cell staining (0.005% Crystal Violet) by microscope. This study was done in triplicate.

CRM1 = CRM1 expression (qRT-PCR, Western blot) in NNK-transformed BEAS-2B cells; type: cell-based, human; details: BEAS-2BNNK, P<0.05
Method: as §1
Isolation of total RNA and quantitative real-time PCR (qRT-PCR). Total RNA was isolated using an RiNeasy® plus mini kit (Qiagen) following the manufacturer protocol. One-Step RT-PCR kit with SYBR green was used for amplification of total RNA (75 ng) by following the manufacturer's protocol (BioRad) and our recent publication^32. […] Threshold cycle number (Ct value) was analyzed using CFX Manager Software (Bio-Rad). The Ct value of CRM1 was normalized to the Ct value of GAPDH from same sample and the fold change in the expression was calculated by using the ΔΔCt method. […]

lung tissues = test: Mouse model of NNK-induced lung tumors, Western blot of lung tumors; type: in vivo, FVB/N mice; details: NNK-treated mice, P<0.01
Method: Mouse model and NNK-induced lung tumors. Male FVB/N mice are an intermediately susceptible strain with regard to spontaneous lung tumor formation and have been used for studies of NNK-induced lung tumorigenesis^31. Mice were each given two intra-peritoneal injections of 3 mg NNK per week (NNK-treated group, n=8) or 0.9% saline (vehicle control group, n=8). From each group, mice were sacrificed at 32-weeks after the last NNK- or saline-treatment. Lung tissues were fresh frozen or formalin-fixed and paraffin-embedded.

phospho-p53 (Thr55) = phospho-p53 (Thr55) protein expression in BEAS-2B cells after NNK exposure; type: cell-based, human
Method: as §1

A549 cells [1] = test: Array-based SYBR Green RT-PCR (RT2 Profiler PCR array, Human Cancer Drug Targets, 84 genes); type: cell-based
Method: Array-based SYBR® Green RT-PCR. Constitutive gene expression profiling was performed using the RT^2 Profiler™ PCR array to analyze the expression of 84 genes involving in cancer signal pathways (Human Cancer Drug Targets, Qiagen) based on manufacturer's instructions and our previous publications^33, 34. Studies were performed in duplicate for each group.

A549 cells [2] = test: Analysis of cell cycle by flow cytometry; type: cell-based; details: 25 μM cisplatin and/or 0.5 nM LMB, 24 and 48 h
Method: Analysis of cell cycle by flow cytometry. The cells were harvested after 24 and 48 h of treatment. […] Cell cycle analysis was conducted by a Guava EasyCyte™ Flow Cytometer (Millipore) as previously described^32, 33. Each sample was run in triplicate and each experiment was repeated three times.

lung cancer cells = details: cited from earlier work
[3] = in vivo; cited from earlier work
[4] = tested on: lung cancer A549 cells xenografts; test: Treatment of mouse xenografts: tumor growth; type: in vivo, female athymic mice; details: intra-tumoral injection three times per week; Cis 2.5 mg/Kg, LMB 2 μg/Kg
Method: Xenograft animal model. The handling of animals was in accordance with the Institutional Animal Care and Use Committee. Female athymic mice, 7-8 weeks of age and 23.5 g in weight (Charles River Laboratory) received subcutaneous injection of 1×10^6 A549 or A549CRM1− cells in the lower flank (n=8/group). Tumor volume was measured by a digital caliper (Thermo Fisher Scientific). The major longitudinal diameter (length) and the major transverse diameter (width) were determined. Tumor volume was calculated based on caliper measurements by the following formula: Tumor volume=½ (length×width^2).
(§2) Treatment of mouse xenografts. Thirty-two female athymic mice, 7-8 weeks of age and 23.5 g in weight (strain code 088, Charles River Laboratory) were each injected subcutaneously with 1×10^6 lung cancer A549 cells in the lower flank. […] All injections were carried out for three times per week. Mice body weights and tumor sizes were measured three times per week.

[5] = tested on: normal bronchial epithelial cells; details: cited from earlier work
[6] = Treatment of mouse xenografts: body weight and side effects; type: in vivo, female athymic mice; details: two weeks after treatment; without deteriorating behavior and health condition
Method: as §2

A549CRM1− cells = test: Cell viability assay (MTT); type: cell-based; details: FIG. 4A, P<0.05
Method: Cell viability assay. Cell viability was evaluated using the MTT (3-(4,5-dimethylthiazol-2-yl)-2,5-diphenyltetrazolium bromide) assay as previously described^29, 33. […] Studies were performed independently in triplicate.

A549 cells [7] = test: Western blot analyses of PARP1, p21 and survivin; type: cell-based; details: 24 and 48 h, P<0.05
Method: Western blot analyses. […] Immunoblotting was performed using different primary antibodies and α-tubulin as the internal control.

[8] = cisplatin 10 and 25 μM with or without 0.5 nM LMB

With `CN(CCCC(=O)c1cccnc1)N=O` [NNK, 4-(methylnitrosamino)-1-(3-pyridyl)-1-butanone] the “soft agar colony number and colony size compared with vehicle-treated BEAS-2B cells” value (BEAS-2B cells) was “significant increase in both colony number and colony size”, the “CRM1 expression at the mRNA level compared to vehicle-treated BEAS-2B cells” value (CRM1) was 2.6 folds and the “CRM1 expression at the protein level compared to vehicle-treated BEAS-2B cells” value (CRM1) was ~1.5 folds. The “CRM1 expression in lung tumor tissues compared with normal tissues” value (lung tissues; 32 weeks after last treatment) was “increased CRM1 expression”, the “p-p53 at Thr55 in lung tumors compared with normal lung tissues” value (lung tissues) was “significant increase” and the “phosphorylated-p53 (p-p53) at Thr55 in NNK-transformed cells” value (phospho-p53 (Thr55); BEAS-2BNNK cells, FIG. 2B) was “overexpressed”. The “protein expression levels of p-p53 at Thr55 compared to vehicle-treated BEAS-2B cells” value (phospho-p53 (Thr55); NNK 10, 75 and 150 μM for 24 and 72 h, P<0.05) was “dose-dependent decrease”.
In the case of `CCC(=C/[C@H](C)C/C=C/C(C)=C/[C@@H](C)C(=O)[C@@H](C)[C@H](O)[C@@H](C)C/C(C)=C/C(=O)O)/C=C/[C@@H]1OC(=O)C=C[C@@H]1C` [LMB, leptomycin B], the “gene expression profile compared to the control group” value (A549 cells [1]; 0.5 nM LMB) is listed as “No significant difference”, the “cell cycle distribution compared with the control” value (A549 cells [2]) is listed as “did not alter the cell cycle distribution” and the “effect on lung cancer cells” value (lung cancer cells) is listed as “inhibit lung cancer cell growth and induce cytotoxicity”. The “side effects in the phase I clinical trial” value [3] was “malaise and anorexia”, the “tumor growth compared to the vehicle-treated control” value [4] was “growth curves followed a similar trend” and the “effects on normal bronchial epithelial cells” value [5] was “minimal effects”.
For `N.N.[Cl][Pt][Cl]` [Cis, cisplatin], the “body weight for mice” value [6] was “started to decrease gradually”, the “expression level of AURKA, AURKB, CDK1, HIF1A, MDM4, PLK1, PLK4, and TNKS compared to the control” value (A549 cells [1]; 25 μM cisplatin, P<0.05) was “significantly decreased expression level” and the “expression of CTSB, GRB2, MDM2, and NF-κB compared to the control” value (A549 cells [1]; 25 μM cisplatin, P<0.05) was “increased expression”. The NF-κB expression (A549 cells [1]; A549 cells) was “increased expression of NF-κB”, the “cell cycle distribution compared with the control” value (A549 cells [2]) was “significantly higher proportion of cells in S and G2/M phases” and the “tumor growth compared to the vehicle-treated control” value [4] was “significant decrease in tumor growth; also recorded: significantly delayed tumor growth”. The “sensitivity of A549CRM1− cells compared with A549 cells” value (A549CRM1− cells) was “even more sensitive”, the “survivin expression level compared to controls” value (A549 cells [7]) was “significantly decreased” and the “PARP1 protein expression compared to vehicle-treated cells” value (A549 cells [7]; [8]) was “significantly increased in a dose-response manner”. The “p21 protein expression compared to vehicle-treated cells” value (A549 cells [7]; [8]) was “significantly increased in a dose-response manner”.
